The target of the assay is recombinant HCV NS5B (HCV RNA-dependent RNA polymerase) (Hepatitis C virus genotype 1b, UniProt P26663). Nature of the assay: biochemical.
Where [1] appears, read: HCV polymerase activity, list of compounds of Example 27, read-out: IC50 (polymerase activity).
[2] abbreviates: related polymerase activity (Example 27 list), read-out: IC50.

Like-named read-outs stand apart in the source and are kept apart here. A value given as a limit tells only on which side of the number the result lay.

Sequence of recombinant HCV NS5B (HCV RNA-dependent RNA polymerase) (P26663 2420-3010 limits assumed): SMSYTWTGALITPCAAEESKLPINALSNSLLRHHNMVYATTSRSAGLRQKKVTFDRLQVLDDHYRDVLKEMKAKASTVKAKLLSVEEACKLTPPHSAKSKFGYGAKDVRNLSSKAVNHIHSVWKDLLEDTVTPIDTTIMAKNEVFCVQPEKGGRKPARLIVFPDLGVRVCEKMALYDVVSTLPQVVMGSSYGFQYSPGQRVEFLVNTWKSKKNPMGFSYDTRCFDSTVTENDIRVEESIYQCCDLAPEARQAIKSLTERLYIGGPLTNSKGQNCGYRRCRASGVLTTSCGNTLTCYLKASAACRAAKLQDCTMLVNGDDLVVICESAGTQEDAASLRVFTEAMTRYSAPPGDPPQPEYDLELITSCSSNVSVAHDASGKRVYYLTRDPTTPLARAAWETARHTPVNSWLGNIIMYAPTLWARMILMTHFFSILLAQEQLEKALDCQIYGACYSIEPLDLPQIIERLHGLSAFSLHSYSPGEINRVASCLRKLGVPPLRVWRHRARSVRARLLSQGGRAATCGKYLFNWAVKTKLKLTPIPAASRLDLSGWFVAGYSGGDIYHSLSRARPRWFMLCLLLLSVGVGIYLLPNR

What is called IC50 is the point on the concentration scale where inhibition reaches its midpoint. For `Cc1cccc(CN(C(=O)CC2CCCC2)c2cc(-c3ccccc3)sc2C(=O)O)c1` [Compound 445, 3-[(2-CYCLOPENTYL-ACETYL)-(3- METHYL-BENZYL)-AMINO]-5-PHENYL- THIOPHENE-2-CARBOXYLIC ACID], the half-inhibitory concentration (IC50) under setting [1] was below 5 µM.
With `CC(C)=CCN(C(=O)c1ccc(C)cc1)c1cc(-c2ccccc2)sc1C(=O)O` [Compound 300, 3-[(4-METHYL-BENZOYL)-(3-METHYL- BUT-ENYL)-AMINO]-5-PHENYL- THIOPHENE-2-CARBOXYLIC ACID], under setting [2], the half-maximal inhibitory concentration (IC50) fell in the range of 5 to 20 µM.
On to `C=CCN(C(=O)CC1CCCC1)c1cc(-c2ccccc2)sc1C(=O)O` [Compound 401, 3-[ALLYL-(2-CYCLOPENTYL-ACETYL)- AMINO]-5-PHENYL-THIOPHENE-2- CARBOXYLIC ACID], for which the concentration for half-maximal inhibition (IC50) under setting [1] is below 5 µM.
Consider `CC1CCCC(C(=O)N(c2cc(-c3ccccc3)sc2C(=O)O)C(C)C)C1` (stereo not drawn) [Compound 371, 3-[(3-METHYL- CYCLOHEXANECARBOXYL)-ISOPROPYL- AMINO]-5-PHENYL-THIOPHENE-2- CARBOXYLIC ACID], for which, under setting [2], the concentration for half-maximal inhibition (IC50) is above 20 µM.
Turning to `Cc1ccc(C(=O)N(c2cc(-c3ccccc3)sc2C(=O)O)C(C)C)cc1F` [Compound 331, 3-[(3-FLUORO-4-METHYL-BENZOYL)- ISOPROPYL-AMINO]-5-PHENYL- THIOPHENE-2-CARBOXYLIC ACID], the IC50 under setting [2] was below 5 µM.
`Cc1ccccc1S(=O)(=O)Nc1cc(-c2ccc(F)cc2)sc1C(=O)O` [Compound 66, 5-(4-FLUORO-PHENYL)-3-(TOLUENE-2-SULFONYLAMINO)-THIOPHENE-2-CARBOXYLIC ACID]: the IC50 under setting [2] is below 5 µM.
For the compound `Cc1ccccc1S(=O)(=O)Nc1cc(-c2ccccn2)sc1C(=O)O` [Compound 128, 5-PYRIDIN-2-YL-3-(TOLUENE-2-SULFONYLAMINO)-THIOPHENE-2-CARBOXYLIC ACID], the half-maximal inhibitory concentration (IC50) under setting [2] was below 5 µM.
With `CC1(C)OCC(N(C(=O)c2ccc(Cl)cc2Cl)c2cc(-c3ccccc3)sc2C(=O)O)CO1` [Compound 535, 3-[(2,4-DICHLORO-BENZOYL)-(2,2- DIMETHYL-[1,3]DIOXAN-5-YL)-AMINO]-5- PHENYL-THIOPHENE-2-CARBOXYLIC ACID], the IC50 under setting [1] was below 5 µM.
For the compound `COc1cc(C)ccc1S(=O)(=O)Nc1cc(-c2ccccc2)sc1C(=O)O` [Compound 142, 3-(2-METHOXY-4-METHYL-BENZENESULFONYLAMINO)-5-PHENYL-THIOPHENE-2-CARBOXYLIC ACID], the IC50 under setting [2] was 5 to 20 µM.
`Cc1ccc(C(=O)N(c2cc(-c3cccc(C(F)(F)F)c3)sc2C(=O)O)C(C)C)cc1` [Compound 304, 3-[ISOPROPYL-(4-METHYL-BENZOYL)- AMINO]-5-(3-TRIFLUOROMETHYL- PHENYL)-THIOPHENE-2-CARBOXYLIC ACID]: under setting [2], the IC50 was below 5 µM.
With `Cc1ccc(C(=O)N(C)c2cc(-c3ccc(CO)cc3)sc2C(=O)O)cc1` [Compound 195, 5-(4-HYDROXYMETHYL-PHENYL)-3-[METHYL-(4-METHYL-BENZOYL)-AMINO]-THIOPHENE-2-CARBOXYLIC ACID], the IC50 under setting [2] lay in the range of 5 to 20 µM.
Still for that read-out and setting: then `CC1CCCCC1C(=O)N(c1cc(-c2ccccc2)sc1C(=O)O)C(C)C` (stereo not drawn) [Compound 378, 3-[ISOPROPYL-(2-METHYL- CYCLOHEXANECARBONYL)-AMINO]-5- PHENYL-THIOPHENE-2-CARBOXYLIC ACID], with 5 to 20 µM; and `Cc1ccccc1S(=O)(=O)Nc1cc(-c2cccc(N)c2)sc1C(=O)O` [Compound 164, 5-(3-AMINO-PHENYL)-3-(TOLUENE-2-SULFONYLAMINO)-THIOPHENE-2-CARBOXYLIC ACID], with 5 to 20 µM; and `CC(C)N(C(=O)c1ccc(Cl)cc1Cl)c1cc(-c2ccccc2)sc1C(=O)O` [Compound 149, 3-[(2,4-DICHLORO-BENZOYL)-ISOPROPYL-AMINO]-5-PHENYL-THIOPHENE-2-CARBOXYLIC ACID], with below 5 µM.
Still for that read-out and setting: as for `Cc1ccccc1S(=O)(=O)Nc1cc(-c2ccccc2C(F)(F)F)sc1C(=O)O` [Compound 106, 3-(TOLUENE-2-SULFONYLAMINO)-5-(2-TRIFLUOROMETHYL-PHENYL)-THIOPHENE-2-CARBOXYLIC ACID], the figure is 5 to 20 µM.
Regarding `O=C(O)c1sc(-c2ccccc2)cc1N(Cc1ccc([N+](=O)[O-])cc1)C(=O)C1CC1` [Compound 420, 3-[CYCLOPROPANECARBONYL-(4- NITRO-BENZYL)-AMINO]-5-PHENYL- THIOPHENE-2-CARBOXYLIC ACID], under setting [1], the IC50 fell in the range of 5 to 20 µM.
As for `O=C(O)c1sc(-c2ccccc2)cc1N(Cc1cccc(Cl)c1)C(=O)C1CCC1` [Compound 481, 3-[(3-CHLORO-BENZYL)- CYCLOBUTANECARBONYL-AMINO]-5- PHENYL-THIOPHENE-2-CARBOXYLIC ACID], under setting [1], the IC50 is 5 to 20 µM.
With `COc1ccccc1-c1cc(NS(=O)(=O)c2ccccc2C)c(C(=O)O)s1` [Compound 104, 5-(2-METHOXY-PHENYL)-3-(TOLUENE-2-SULFONYLAMINO)-THIOPHENE-2-CARBOXYLIC ACID], the half-maximal inhibitory concentration (IC50) under setting [2] was in the range of 5 to 20 µM.
In the case of `C=CCN(C(=O)c1ccc(C)cc1)c1cc(-c2cccc(/C=C/C(=O)O)c2)sc1C(=O)O` [Compound 323, 3-[ALLYL-(4-METHYL-BENZOYL)-AMINO]- 5-[3-(2-CARBOXY-VINYL)-PHENYL]- THIOPHENE-2-CARBOXYLIC ACID], under setting [2], the IC50 fell in the range of 5 to 20 µM.
In the case of `CCC(C)N(C(=O)c1ccc(Cl)cc1Cl)c1cc(-c2ccccc2)sc1C(=O)O` (stereo not drawn) [Compound 261, 3-[SEC-BUTYL-(2,4-DICHLORO-BENZOYL)-AMINO]-5-PHENYL-THIOPHENE-2-CARBOXYLIC ACID], under setting [2], the IC50 was below 5 µM.
With `O=C(O)c1sc(-c2ccccc2)cc1NS(=O)(=O)c1ccc(F)c(F)c1F` [Compound 222, 5-PHENYL-3-(2,3,4-TRIFLUORO-BENZENESULFONYLAMINO)-THIOPHENE-2-CARBOXYLIC ACID], the half-maximal inhibitory concentration (IC50) under setting [2] was 5 to 20 µM.
In the case of `CC[NH+](CC)c1ncc(CN(C(=O)c2ccc(Cl)cc2Cl)c2cc(-c3ccccc3)sc2C(=O)O)s1` [Compound 558, (5-{[[2-CARBOXY-5-PHENYL-THIOPHEN-3- YL)-(2,4-DICHLORO-BENZOYL)-AMINO]- METHYL}-THIAZOL-2-YL)-DIETHYL- AMMONIUM; CHLORIDE], the half-inhibitory concentration (IC50) under setting [1] was below 5 µM.
Turning to `C=CCN(C(=O)Cc1ccc(OC)cc1)c1cc(-c2ccccc2)sc1C(=O)O` [Compound 491, 3-{ALLYL-[2-(4-METHOXY-PHENYL)- ACETYL]-AMINO}-5-PHENYL-THIOPHENE- 2-CARBOXYLIC ACID], the IC50 under setting [1] is above 20 µM.
On the same count and under the same terms, as for `Cc1ccc(S(=O)(=O)Nc2cc(-c3ccccc3)sc2C(N)=O)c(C)c1` [Compound 568, 3-(2,4-DIMETHYL- BENZENESULFONYLAMINO)-5-PHENYL- THIOPHENE-2-CARBOXYLIC ACID AMIDE], the figure is 5 to 20 µM; as for `Cc1cccc(-c2cc(N(C(=O)C3CCC(C)CC3)C(C)C)c(C(=O)O)s2)c1` (stereo not drawn) [Compound 448, 3-[ISOPROPYL-(4-METHYL- CYCLOHEXANECARBONYL)-AMINO]-5- #M!-TOLYL-THIOPHENE-2-CARBOXYLIC ACID], below 5 µM.
Turning to `O=C(Nc1cc(-c2ccccc2)sc1C(=O)O)Oc1ccc(Cl)cc1` [Compound 33, 3-(4-CHLORO-PHENOXYCARBONYLAMINO)-5-PHENYL-THIOPHENE-2-CARBOXYLIC ACID], under setting [2], the IC50 lay within 5 to 20 µM.
Turning to `CN(C(=O)c1ccc2ccccc2c1)c1cc(-c2ccccc2)sc1C(=O)O` [Compound 252, 3-[METHYL-(NAPHTHALENE-2-CARBONYL)-AMINO]-5-PHENYL-THIOPHENE-2-CARBOXYLIC ACID], the IC50 under setting [2] lay within 5 to 20 µM.
